Laboratory results taken from PubChem BioAssay (NCI).
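Grown in 96-well plates, cells were treated for 48 hours with each compound at five concentrations. Insufficient inhibition: endpoint recorded as highest concentration tested. GI50 marks 50% less growth. TGI denotes the concentration required for complete inhibition of growth.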

Assays:
Test in all cases: NCI anticancer screen, dose series, 48 h
[1] = tested on: OVCAR-5 ovarian
[2] = tested on: LOX IMVI melanoma
[3] = tested on: A549 NSCLC
[4] = tested on: NCI-H460 lung
[5] = tested on: COLO 205 colon
[6] = tested on: CCRF-CEM leukemia
[7] = tested on: MDA-MB-231 breast
[8] = tested on: RXF 393 renal
[9] = tested on: HT29 colon
[10] = tested on: RPMI-8226 leukemia

Structure (SMILES)	GI50 [1] [µM]	TGI [1] [µM]	GI50 [2] [µM]	TGI [2] [µM]	GI50 [3] [µM]	TGI [3] [µM]	GI50 [4] [µM]	TGI [4] [µM]	GI50 [5] [µM]	TGI [5] [µM]	GI50 [6] [µM]	TGI [6] [µM]	GI50 [7] [µM]	TGI [7] [µM]	GI50 [8] [µM]	TGI [8] [µM]	GI50 [9] [µM]	TGI [9] [µM]	GI50 [10] [µM]	TGI [10] [µM]
N#Cc1c(-c2ccccc2)cc(-c2ccc(Nc3nc(Nc4ccc(Cl)cc4)nc(Nc4ccc(Cl)cc4)n3)cc2)nc1N	4.13	17.6	1.85	4.33	11	> 100	3.47	15.8	1.78	3.96	3.1	9.4	1.76	4.89	1.78	4.72	3.8	16.5	3.81	> 100
O=C1C=C(Br)C(=O)C12CCc1ccccc12 (centres undefined)	–	33.3	–	31.7	–	55.4	–	48	–	11.2	–	> 27.5	–	70.2	–	19.1	–	45	–	> 37.5
O=C(Nc1ccc(F)cc1)c1c(NC(=O)C(F)(F)F)sc2c1CCCCC2	2.89	13.1	2.43	13.2	2.64	12	2.13	10	1.55	3.59	1.5	15.1	1.75	7.3	1.75	6.56	2.48	13.5	0.917	4.14
CC[C@@]1(O)C(=O)NCc2c1cc1n(c2=O)Cc2cc3c(N)cccc3nc2-1	11.8	> 94.5	0.468	9.5	2.5	> 69	0.305	27.8	8.35	> 48.1	0.185	> 19.5	16.4	> 60.3	5.35	24.9	15.1	> 100	4.23	> 32.1
O=C(NCCCNc1cc(-c2cn(-c3ccccc3)nc2-c2cccc(O)c2)ccn1)c1ccccc1	3.93	75	2.25	6.36	4.62	34.4	3.61	18.7	1.71	3.67	3.14	54.7	2.34	5.4	1.97	6.2	1.71	5.23	1.06	3.3
OCC1OC(n2ccc3c(NO)ncnc32)C(O)C1O (centres undefined)	0.247	6.33	0.0665	1.27	0.087	3.58	0.044	4.45	0.114	0.617	0.159	0.692	0.233	–	0.163	1.14	0.13	0.94	0.138	0.504
N#Cc1cnc2cc(OC[C@@H](O)CO)c(NC(=O)CC3CSSC3)cc2c1Nc1ccc(OCc2cccc(F)c2)c(Cl)c1	0.797	1.59	2.17	3.08	0.842	1.72	0.104	0.261	0.813	1.63	0.0603	0.16	0.104	0.237	0.643	1.44	0.225	0.759	0.557	1.74
CC(C)c1ccc(/C(C(=O)O)=C(\O)C(=O)O)cc1	–	> 100	–	> 100	–	> 100	–	> 100	–	> 100	–	> 100	–	> 100	–	> 100	–	> 100	–	> 100
C=C1C(=O)O[C@H]2[C@H]1CC/C(COC(=O)NCc1ccc(Cn3c(=O)sn(CCCCl)c3=O)cc1)=C\CC[C@@]1(C)O[C@@H]21	2.64	5.95	1.58	3.09	19.2	34.6	11.3	30.5	2.04	3.92	0.577	4.03	1.72	3.33	1.35	2.8	2.46	5.58	0.764	3.1
COc1cc(/C=C\[N+](=O)[O-])ccc1OCc1ccccc1	3.29	13.7	1	2.3	3.17	10.5	3.98	15.9	1.67	3.37	3.13	11.5	1.85	5.55	1.8	3.73	1.94	4	0.43	2.73
